In one experiment the target is DLK (Homo sapiens (Human), UniProt Q12852). Nature of the experiment: DLK biochemical assay (TR-FRET, MKK7 phosphorylation). The procedure, abridged:
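TR-FRET ratio (665/Eu) reports MKK7 T275/S277 phosphorylation, lowered by DLK inhibition. Reaction: 60 μM ATP, 15 nM MKK7, 10 nM DLK catalytic domain, 90 min room temperature; detection incubation 16 h, 37° C. (1536-well) or 4° C. (384-well). Final concentrations.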

Another experiment has as its target LZK (Homo sapiens (Human), UniProt O43283). Nature of the experiment: LZK biochemical assay (TR-FRET, MKK7 phosphorylation). The procedure, abridged: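 Readout is the HTRF ratio (XL665/Eu) from an EDTA-containing detection mix of 0.4 nM Eu-anti-phospho-MKK7 (T275/S277) and 20 nM XL665-anti-His, incubated 16 h at 32° C. This followed a 90 min RT reaction of 10 nM LZK catalytic domain, 15 nM MKK7 and 15 μM ATP at pH 7.5.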

Our source for the IC50 values is US20230382904A1, “SUBSTITUTED 4-([1,2,4]TRIAZOLO[1,5-a]PYRIDIN-6-YL)THIOPHENE-2-CARBOXAMIDE DERIVATIVES AND USE THEREOF” (The Johns Hopkins University, priority 2020, published 2023).

pIC50: −log10 of the molar value.

Sequence of DLK (Q12852 1-520): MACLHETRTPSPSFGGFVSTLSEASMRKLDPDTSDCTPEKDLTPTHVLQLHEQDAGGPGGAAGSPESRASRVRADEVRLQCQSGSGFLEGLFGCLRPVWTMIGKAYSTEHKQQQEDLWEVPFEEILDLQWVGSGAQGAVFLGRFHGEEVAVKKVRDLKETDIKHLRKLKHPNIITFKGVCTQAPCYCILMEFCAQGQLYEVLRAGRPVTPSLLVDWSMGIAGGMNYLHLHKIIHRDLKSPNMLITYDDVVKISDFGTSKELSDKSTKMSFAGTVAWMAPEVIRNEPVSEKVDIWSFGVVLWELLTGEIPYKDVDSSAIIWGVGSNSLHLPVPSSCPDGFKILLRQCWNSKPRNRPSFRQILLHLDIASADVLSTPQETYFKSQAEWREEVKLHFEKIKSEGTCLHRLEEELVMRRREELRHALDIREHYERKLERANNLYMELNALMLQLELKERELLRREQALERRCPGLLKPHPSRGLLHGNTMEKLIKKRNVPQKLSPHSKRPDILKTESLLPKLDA
Sequence of LZK (O43283 168-409): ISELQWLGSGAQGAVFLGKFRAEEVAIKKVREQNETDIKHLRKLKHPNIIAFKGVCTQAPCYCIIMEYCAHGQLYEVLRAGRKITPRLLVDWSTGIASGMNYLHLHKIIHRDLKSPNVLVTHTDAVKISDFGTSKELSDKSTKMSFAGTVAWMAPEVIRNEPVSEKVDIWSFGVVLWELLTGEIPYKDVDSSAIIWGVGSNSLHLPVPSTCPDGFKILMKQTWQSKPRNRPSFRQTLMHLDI

In the case of `Nc1nc2ccc(-c3csc(C(=O)NCc4ccsc4)c3)cn2n1` [Compound 273], the pIC50 at DLK is 6.24; against LZK, 4.85.

On to `Nc1nc2ccc(-c3csc(C(=O)NCc4cccs4)c3)cn2n1` [Compound 274], for which the negative logarithm of the IC50 (pIC50) against DLK was 6.59; at LZK, 4.96.

In the case of `Nc1nc2ccc(-c3csc(C(=O)NCc4ccco4)c3)cn2n1` [Compound 275], the pIC50 at DLK is 6.20; at LZK, 4.80.

As to `Cn1cccc1CNC(=O)c1cc(-c2ccc3nc(N)nn3c2)cs1` [Compound 276], the figures for the pIC50 at DLK and on LZK were 6.38 and 4.82, respectively.

Turning to `Nc1nc2ccc(-c3csc(C(=O)NCc4ccoc4)c3)cn2n1` [Compound 277], the negative-log IC50 (pIC50) against DLK is 6.32; against LZK, 4.74.

Take `CCc1ccccc1NC(=O)c1cc(-c2ccc3nc(N)nn3c2)cs1` [Compound 278]: the pIC50 on DLK was 6.36; on LZK it was under 4.52.

Consider `Nc1nc2ccc(-c3csc(C(=O)NCc4ccc(OCCN5CCCCC5)cc4)c3)cn2n1` [Compound 279], for which the pIC50 was 5.68 against DLK and under 4.52 against LZK.

Turning to `COC(=O)c1cccc(CNC(=O)c2cc(-c3ccc4nc(N)nn4c3)cs2)c1` [Compound 280], the pIC50 against DLK was 6.60; on LZK, 4.64.

With `Nc1nc2ccc(-c3csc(C(=O)NCc4ccc(OCCN5CCOCC5)cc4)c3)cn2n1` [Compound 281], the negative-log IC50 (pIC50) against DLK was 5.82; at LZK, under 4.52.

Consider `COc1cccc(CCNC(=O)c2cc(-c3ccc4nc(N)nn4c3)cs2)c1` [Compound 282], for which the pIC50 at DLK was 6.12; against LZK, under 4.52.

Turning to `Nc1nc2ccc(-c3csc(C(=O)NCCc4c(F)cccc4Cl)c3)cn2n1` [Compound 283], the pIC50 on DLK was 6.28; against LZK it was under 4.52.

On to `CN(CCc1ccccc1)C(=O)c1cc(-c2ccc3nc(N)nn3c2)cs1` [Compound 284], for which the figures for the pIC50 at DLK and against LZK were 5.59 and under 4.52, respectively.

Regarding `Nc1nc2ccc(-c3csc(C(=O)NCc4cccc(C(=O)O)c4)c3)cn2n1` [Compound 285], the pIC50 was 5.77 against DLK and 4.70 against LZK.

For `Nc1nc2ccc(-c3csc(C(=O)Nc4ccccc4OC(F)(F)F)c3)cn2n1` [Compound 286], the pIC50 against DLK is 6.22; against LZK, under 4.52.

Consider `CCN1CCC[C@@H](NC(=O)c2cc(-c3ccc4nc(N)nn4c3)cs2)C1` [Compound 287], for which the pIC50 against DLK was 5.24; at LZK, under 4.52.

As for `Nc1nc2ccc(-c3csc(C(=O)Nc4ccccc4OC(F)F)c3)cn2n1` [Compound 288], the pIC50 against DLK is 5.62; on LZK it was 4.70.

Take `Nc1nc2ccc(-c3csc(C(=O)Nc4ccccc4CO)c3)cn2n1` [Compound 289]: the results for the pIC50 against DLK and at LZK were 5.59 and 5.70, respectively.

Regarding `COc1cccc(C(CCO)NC(=O)c2cc(-c3ccc4nc(N)nn4c3)cs2)c1` (stereo not shown) [Compound 290], the pIC50 is 6.21 against DLK and 5.13 on LZK.

Regarding `COc1cccc(C2(NC(=O)c3cc(-c4ccc5nc(N)nn5c4)cs3)CC2)c1` [Compound 291], the pIC50 against DLK is 6.15; against LZK it was 4.85.

`COCCOc1cccc(CNC(=O)c2cc(-c3ccc4nc(N)nn4c3)cs2)c1` [Compound 292]: the pIC50 was 5.92 against DLK and 4.72 against LZK.

On to `CC(C)c1ccccc1NC(=O)c1cc(-c2ccc3nc(N)nn3c2)cs1` [Compound 293], for which the results for the pIC50 against DLK and against LZK were 6.59 and under 4.52, respectively.

For `CC(O)c1ccccc1NC(=O)c1cc(-c2ccc3nc(N)nn3c2)cs1` (stereo not shown) [Compound 294], the pIC50 was 6.15 against DLK and under 4.52 at LZK.

With `Nc1nc2ccc(-c3csc(C(=O)NCc4ccc5c(c4)OCO5)c3)cn2n1` [Compound 295], the negative logarithm of the IC50 (pIC50) was 6.41 at DLK and 4.85 at LZK.

On to `COc1cccc(CNC(=O)c2cc(-c3cn4nc(N)nc4cc3F)cs2)c1` [Compound 296], for which the pIC50 on DLK was 6.14; against LZK, 4.92.

On to `Nc1nc2cc(F)c(-c3csc(C(=O)NCc4ccccc4)c3)cn2n1` [Compound 297], for which the pIC50 was 6.15 on DLK and 4.96 against LZK.

With `C[C@@H](NC(=O)c1cc(-c2ccc3nc(N)nn3c2)cs1)c1ccc(F)cc1` [Compound 298], the pIC50 against DLK is 6.46; on LZK it was 5.38.

Turning to `Nc1nc2ccc(-c3csc(C(=O)NC4(c5ccc(F)cc5)CC4)c3)cn2n1` [Compound 299], the pIC50 is 6.92 against DLK and 5.60 against LZK.

As to `Nc1nc2cc(F)c(-c3csc(C(=O)NCc4ccc(F)cc4)c3)cn2n1` [Compound 300], the pIC50 at DLK was 5.96; on LZK it was 5.43.

`CC(C)C(NC(=O)c1cc(-c2ccc3nc(N)nn3c2)cs1)c1ccc(F)cc1` (stereo not shown) [Compound 301]: the values for the negative-log IC50 (pIC50) against DLK and against LZK were 7.00 and 4.78, respectively.

For the compound `C[C@H](NC(=O)c1cc(-c2ccc3nc(N)nn3c2)cs1)c1ccc(F)cc1` [Compound 302], the pIC50 was 7.12 at DLK and 5.95 on LZK.

For `CC(NC(=O)c1cc(-c2ccc3nc(N)nn3c2)cs1)c1ccc(F)cc1` (stereo not shown) [Compound 303], the pIC50 is 6.89 at DLK and 5.74 against LZK.

For `Cc1cccc2oc(CNC(=O)c3cc(-c4ccc5nc(N)nn5c4)cs3)nc12` [Compound 304], the pIC50 is 6.66 at DLK and 5.37 on LZK.

For `Cc1sc(C(=O)NCc2ccc(F)cc2)cc1-c1ccc2nc(N)nn2c1` [Compound 305], the pIC50 on DLK and on LZK was under 4.52 in each case.

Take `Nc1nc2ccc(-c3csc(C(=O)NC4COc5ccc(F)cc54)c3)cn2n1` (stereo not shown) [Compound 306]: the figures for the pIC50 on DLK and against LZK were 6.89 and 5.60, respectively.

With `Nc1nc2ccc(-c3csc(C(=O)NC4CCc5ccccc54)c3)cn2n1` (stereo not shown) [Compound 307], the pIC50 is 6.82 at DLK and 5.35 against LZK.

As for `CC(C)(NC(=O)c1cc(-c2ccc3nc(N)nn3c2)cs1)c1ccc(F)cc1` [Compound 308], the negative-log IC50 (pIC50) is 6.52 at DLK and 5.52 on LZK.

`Nc1nc2ccc(-c3csc(C(=O)NC4(c5ccc(F)cc5)CCC4)c3)cn2n1` [Compound 309]: the pIC50 was 6.92 against DLK and 5.18 against LZK.

For `Nc1nc2ccc(-c3csc(C(=O)NC4(c5ccc(F)cc5)CCCC4)c3)cn2n1` [Compound 310], the values for the pIC50 against DLK and against LZK were 7.29 and 4.77, respectively.

Consider `COc1cccc(CNC(=O)c2cc(-c3ccc4nc(N)nn4c3)c(C)s2)c1` [Compound 311], for which the negative logarithm of the IC50 (pIC50) was 4.72 at DLK and under 4.52 against LZK.

Turning to `Cc1sc(C(=O)NC2CCCCC2)cc1-c1ccc2nc(N)nn2c1` [Compound 312], the pIC50 on DLK and against LZK was under 4.52 each time.

As to `Cc1sc(C(=O)NCc2nc3ccccc3o2)cc1-c1ccc2nc(N)nn2c1` [Compound 313], the pIC50 is 4.62 on DLK and under 4.52 against LZK.

`Nc1nc2ccc(-c3csc(C(=O)NC4(c5ccc(F)cc5)COC4)c3)cn2n1` [Compound 314]: the pIC50 against DLK is 6.28; at LZK, 5.15.

With `Nc1nc2ccc(-c3csc(C(=O)NC4CCOc5ccc(F)cc54)c3)cn2n1` (stereo not shown) [Compound 315], the pIC50 was 6.89 on DLK and 5.32 on LZK.

For `CC1(C)CC(NC(=O)c2cc(-c3ccc4nc(N)nn4c3)cs2)c2ccccc2O1` (stereo not shown) [Compound 316], the pIC50 against DLK was 6.74; on LZK, 5.33.

For `Nc1nc2ccc(-c3csc(C(=O)NC4CCOc5ccccc54)c3)cn2n1` (stereo not shown) [Compound 317], the pIC50 at DLK is 7.01; against LZK, 5.44.

As for `Nc1nc2ccc(-c3csc(C(=O)NC4CCCc5cc(F)ccc54)c3)cn2n1` (stereo not shown) [Compound 318], the values for the negative-log IC50 (pIC50) against DLK and against LZK were 6.89 and 5.77, respectively.

For the compound `CC[C@H](NC(=O)c1cc(-c2ccc3nc(N)nn3c2)cs1)c1ccc(F)cc1` [Compound 319], the values for the pIC50 against DLK and on LZK were 6.92 and 5.77, respectively.

`Cc1sc(C(=O)NCc2ccccc2)cc1-c1ccc2nc(N)nn2c1` [Compound 320]: the pIC50 against DLK and against LZK was under 4.52 each time.

On to `CCC[C@H](NC(=O)c1cc(-c2ccc3nc(N)nn3c2)cs1)c1ccccc1` [Compound 321], for which the values for the pIC50 against DLK and against LZK were 7.17 and 5.43, respectively.

Turning to `COC[C@H](NC(=O)c1cc(-c2ccc3nc(N)nn3c2)cs1)c1ccccc1` [Compound 322], the pIC50 against DLK was 6.92; on LZK, 5.85.

`C[C@H](NC(=O)c1cc(-c2ccc3nc(N)nn3c2)cs1)c1ccccc1` [Compound 323]: the pIC50 on DLK is 6.79; at LZK, 5.53.

For `CC[C@H](NC(=O)c1cc(-c2ccc3nc(N)nn3c2)cs1)c1ccccc1` [Compound 324], the results for the pIC50 at DLK and at LZK were 7.21 and 5.80, respectively.

Consider `C[C@@H](NC(=O)c1cc(-c2ccc3nc(N)nn3c2)cs1)c1ccccc1` [Compound 325], for which the figures for the pIC50 at DLK and on LZK were 6.55 and under 4.52, respectively.

`Nc1nc2ccc(-c3csc(C(=O)N[C@H](c4ccccc4)C(F)(F)F)c3)cn2n1` [Compound 326]: the pIC50 against DLK was 6.59; at LZK it was under 4.52.

Regarding `Nc1nc2ccc(-c3csc(C(=O)NC(c4ccccc4)C4CC4)c3)cn2n1` (stereo not shown) [Compound 327], the results for the pIC50 at DLK and at LZK were 7.38 and 5.21, respectively.

In the case of `Nc1nc2ccc(-c3csc(C(=O)NCc4ccc(CN5CCCC5=O)cc4)c3)cn2n1` [Compound 328], the pIC50 is 6.40 against DLK and 5.09 on LZK.
